Assay results taken from patent publication US20060235084A1, “PEG-polyacetal diblock and triblock copolymers and pharmaceutical compositions” (priority 2005, published 2006).

Assay: In vitro release of paclitaxel from triblock copolymer gel into PBS release media
Format: physicochemical
Conditions: 23% by weight aqueous triblock copolymer of Example 1, paclitaxel approx. 2.0 mg/ml; PBS pH 7.4 with 2.4% Tween-80 and 4% Cremophor EL, 37° C.; HPLC
Description: To a 23% by weight aqueous solution of the triblock copolymer of Example 1 is added sufficient paclitaxel to provide approximately 2.0 mg/ml of drug. A 2 ml sample of this solution is put onto a watchglass and equilibrated at 37° C. Since the temperature is greater than the gelation temperature of the copolymer, a gel formed on the watchglass. The watchglass is placed in a 200 ml beaker containing release media comprised of 150 ml of PBS (pH 7.4) containing 2.4% by weight Tween-80 and 4% by weight Cremophor EL equilibrated at 37° C. The solution in the beaker was stirred, and the top of the beaker is sealed to prevent evaporation. The whole assembly was placed into an incubator at 37° C. The release study is performed in triplicate. At different time periods a 5 ml aliquot of the release media was taken and analyzed for […]. The PBS solution was replaced with fresh PBS after each aliquot removal. Samples were collected at 1, 2, 4, 8, 18, and 24 hours, and thereafter at 24 hour intervals, and analyzed by HPLC. The release profile of […] from the gel is determined. The gel formulation provides excellent control over the release of the paclitaxel for approximately 50 days.

CC(=O)O[C@H]1C(=O)[C@@]2(C)[C@H]([C@H](OC(=O)c3ccccc3)[C@]3(O)C[C@H](OC(=O)[C@H](O)[C@@H](NC(=O)c4ccccc4)c4ccccc4)C(C)=C1C3(C)C)[C@]1(OC(C)=O)CO[C@@H]1C[C@@H]2O [paclitaxel]
duration of controlled release from the gel formulation: approximately 50 days
